Reference: ChEMBL document CHEMBL1821660, “Synthesis and biological activity of a novel class nicotinic acetylcholine receptors (nAChRs) ligands structurally related to anatoxin-a” (Bioorg Med Chem Lett, 2011)

Legend:
[1] = molecular target: Neuronal acetylcholine receptor subunit alpha-7 (Homo sapiens, UniProt P36544); experiment: Displacement of [125I]-alpha-bungarotoxin from alpha7 nAchR expressed in rat GH4C1 cells; assay type: cell-based, GH4-C1
[2] = Displacement of [3H]-cytisine from nAChR in rat brain membranes; assay type: cell membranes
[3] = molecular target: Neuronal acetylcholine receptor; alpha3/beta4 (Homo sapiens, UniProt P30926+P32297); experiment: Displacement of [3H]-epibatidine from alpha3beta4 nAChR expressed in human IMR32 cells after 2 hrs by scintillation counting; assay type: cell-based, IMR-32
[4] = molecular target: Acetylcholine receptor subunit alpha (Homo sapiens, UniProt P02708); experiment: Binding affinity to alpha1 nAchR expressed in human TE671 cells; assay type: cell-based, TE-671
Sequence of Acetylcholine receptor subunit alpha (P02708 whole entry): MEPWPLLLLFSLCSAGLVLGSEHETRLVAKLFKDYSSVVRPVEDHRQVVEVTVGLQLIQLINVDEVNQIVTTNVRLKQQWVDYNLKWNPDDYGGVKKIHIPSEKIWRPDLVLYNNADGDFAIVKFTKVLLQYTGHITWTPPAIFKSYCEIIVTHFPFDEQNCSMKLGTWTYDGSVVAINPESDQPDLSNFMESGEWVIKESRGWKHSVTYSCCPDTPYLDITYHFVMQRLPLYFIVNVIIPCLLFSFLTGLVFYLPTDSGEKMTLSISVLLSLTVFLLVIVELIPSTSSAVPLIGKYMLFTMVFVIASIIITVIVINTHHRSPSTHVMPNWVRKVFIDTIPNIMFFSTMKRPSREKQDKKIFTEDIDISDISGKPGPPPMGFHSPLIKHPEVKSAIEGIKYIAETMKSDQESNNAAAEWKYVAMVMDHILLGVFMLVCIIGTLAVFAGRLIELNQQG

Sequence of Neuronal acetylcholine receptor; alpha3/beta4 (P30926 whole entry): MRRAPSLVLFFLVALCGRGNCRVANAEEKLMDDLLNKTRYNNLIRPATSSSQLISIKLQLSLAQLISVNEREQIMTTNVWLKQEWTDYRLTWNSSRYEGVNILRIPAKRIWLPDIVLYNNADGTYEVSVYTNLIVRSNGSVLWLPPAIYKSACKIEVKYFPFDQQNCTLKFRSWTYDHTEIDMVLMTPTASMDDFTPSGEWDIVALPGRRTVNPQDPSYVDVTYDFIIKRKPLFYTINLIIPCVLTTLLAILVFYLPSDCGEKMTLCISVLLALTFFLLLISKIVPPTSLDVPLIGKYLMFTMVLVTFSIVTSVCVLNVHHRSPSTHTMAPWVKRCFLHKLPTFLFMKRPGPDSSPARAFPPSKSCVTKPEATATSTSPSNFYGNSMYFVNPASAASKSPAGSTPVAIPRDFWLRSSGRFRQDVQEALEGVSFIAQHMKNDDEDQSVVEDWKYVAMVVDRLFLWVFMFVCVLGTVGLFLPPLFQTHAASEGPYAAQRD
Sequence of Neuronal acetylcholine receptor; alpha3/beta4 (P32297 whole entry): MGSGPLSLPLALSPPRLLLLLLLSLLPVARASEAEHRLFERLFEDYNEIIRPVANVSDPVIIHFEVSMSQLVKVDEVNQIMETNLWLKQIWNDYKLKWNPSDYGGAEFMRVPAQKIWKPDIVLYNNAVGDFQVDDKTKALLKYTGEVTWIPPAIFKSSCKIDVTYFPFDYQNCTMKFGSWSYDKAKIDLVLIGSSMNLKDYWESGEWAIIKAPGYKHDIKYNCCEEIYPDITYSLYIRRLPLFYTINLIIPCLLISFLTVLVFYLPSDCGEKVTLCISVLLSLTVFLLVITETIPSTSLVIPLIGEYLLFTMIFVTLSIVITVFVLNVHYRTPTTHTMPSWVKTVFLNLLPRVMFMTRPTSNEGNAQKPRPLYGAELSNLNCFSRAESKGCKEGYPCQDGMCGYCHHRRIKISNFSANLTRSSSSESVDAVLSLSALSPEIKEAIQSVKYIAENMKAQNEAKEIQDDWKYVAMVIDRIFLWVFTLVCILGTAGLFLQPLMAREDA
Sequence of Neuronal acetylcholine receptor subunit alpha-7 (P36544 whole entry): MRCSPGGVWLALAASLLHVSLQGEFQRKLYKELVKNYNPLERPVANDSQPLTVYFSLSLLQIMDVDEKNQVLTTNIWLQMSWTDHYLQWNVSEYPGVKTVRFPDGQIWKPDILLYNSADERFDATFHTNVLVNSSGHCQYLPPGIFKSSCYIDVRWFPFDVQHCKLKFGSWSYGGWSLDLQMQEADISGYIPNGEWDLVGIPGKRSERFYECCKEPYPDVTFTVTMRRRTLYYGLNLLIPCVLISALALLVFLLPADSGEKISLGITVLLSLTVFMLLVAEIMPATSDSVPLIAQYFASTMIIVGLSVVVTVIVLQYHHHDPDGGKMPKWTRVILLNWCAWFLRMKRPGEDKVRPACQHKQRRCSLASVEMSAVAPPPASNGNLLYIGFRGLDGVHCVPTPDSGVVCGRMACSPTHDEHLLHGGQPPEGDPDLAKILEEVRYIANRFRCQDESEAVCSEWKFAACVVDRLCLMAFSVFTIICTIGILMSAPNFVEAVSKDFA

| SMILES | IC50 [1] [µM] | IC50 [2] [µM] | IC50 [3] [µM] | IC50 [4] [µM] |
| --- | --- | --- | --- | --- |
| Cc1cc(C2=CCC[C@@H]3CC[C@H]2N3)on1 (racemic) | > 10 | 0.0091 | > 10 | – |
| CCc1cc(C2=CCC[C@@H]3CC[C@H]2N3)on1 (racemic) | 4.6 | 0.0122 | 1.8 | 4.2 |
| CC(C)c1cc(C2=CCC[C@@H]3CC[C@H]2N3)on1 (racemic) | 15.1 | 2.1 | 2.9 | 5.5 |
| C1=C(c2cc(-c3ccccc3)no2)[C@H]2CC[C@@H](CC1)N2 (racemic) | > 10 | > 10 | 1.05 | 7.8 |
| CCOC(=O)c1cc(C2=CCC[C@@H]3CC[C@H]2N3)on1 (racemic) | > 10 | > 10 | > 10 | > 10 |
| Cc1cc([C@@]2(O)CCC[C@@H]3CC[C@H]2N3)on1 (racemic) | > 10 | > 10 | > 10 | > 10 |
| Cc1cc([C@]2(O)CCC[C@@H]3CC[C@H]2N3)on1 (racemic) | > 10 | > 10 | > 10 | > 10 |
| Cc1noc2c1[C@H]1CC[C@@H](CC2)N1 (racemic) | > 10 | > 10 | > 10 | > 10 |
| CCOC(=O)c1noc2c1[C@H]1CC[C@@H](CC2)N1 (racemic) | > 10 | > 10 | > 10 | > 10 |
| CN1CCC[C@H]1c1cccnc1 [NICOTINE] | – | 0.0047 | – | – |
